We go through 28 compounds from patent US20210300940A1 (Merck Patent GmbH, priority 2018, published 2021).

For one experiment, the target named is T1, TLR7 (Homo sapiens, UniProt Q9NYK1).
T1 construct: expressed in transfected cells; host or cells: HEK/293 cells carrying TLR7 and an NF-kB luciferase reporter
T1 sequence (Q9NYK1 27-1049): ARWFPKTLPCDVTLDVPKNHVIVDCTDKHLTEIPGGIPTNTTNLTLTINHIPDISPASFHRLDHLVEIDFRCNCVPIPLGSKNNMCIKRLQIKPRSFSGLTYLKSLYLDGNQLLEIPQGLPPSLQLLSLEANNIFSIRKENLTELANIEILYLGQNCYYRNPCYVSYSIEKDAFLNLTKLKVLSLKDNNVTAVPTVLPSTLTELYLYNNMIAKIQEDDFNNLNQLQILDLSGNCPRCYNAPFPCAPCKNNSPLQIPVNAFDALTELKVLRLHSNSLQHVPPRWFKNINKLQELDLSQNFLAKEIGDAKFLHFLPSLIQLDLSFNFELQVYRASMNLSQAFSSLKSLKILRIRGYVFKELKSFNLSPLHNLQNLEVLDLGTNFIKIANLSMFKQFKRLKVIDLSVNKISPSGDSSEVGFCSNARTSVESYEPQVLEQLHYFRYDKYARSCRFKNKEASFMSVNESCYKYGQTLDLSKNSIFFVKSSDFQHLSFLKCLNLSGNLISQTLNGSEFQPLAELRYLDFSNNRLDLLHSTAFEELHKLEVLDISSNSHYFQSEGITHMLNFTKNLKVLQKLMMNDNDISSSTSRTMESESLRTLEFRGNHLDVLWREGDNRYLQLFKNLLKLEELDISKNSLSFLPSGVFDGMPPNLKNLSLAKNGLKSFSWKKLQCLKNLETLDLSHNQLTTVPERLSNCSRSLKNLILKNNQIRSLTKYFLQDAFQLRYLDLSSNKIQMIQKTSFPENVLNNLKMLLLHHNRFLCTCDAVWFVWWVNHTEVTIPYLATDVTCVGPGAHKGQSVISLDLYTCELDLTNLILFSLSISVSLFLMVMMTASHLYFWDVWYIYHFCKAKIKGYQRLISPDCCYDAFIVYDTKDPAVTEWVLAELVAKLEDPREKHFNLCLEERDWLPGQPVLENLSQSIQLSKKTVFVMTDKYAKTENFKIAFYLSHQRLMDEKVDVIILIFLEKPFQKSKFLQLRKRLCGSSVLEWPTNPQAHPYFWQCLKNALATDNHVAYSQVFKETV
Put plainly: HEK/293 TLR7 Cell Assay. The class given is cell-based. The note with it: TLR7/NFKb HEK cells, R848 agonist 10 uM final concentration, Steady-Glo readout; read-out: TLR7 potency. Summed up: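 Compounds added to HEK cells expressing TLR7 with an NFκB reporter 30 min ahead of 10 uM R848 challenge; luciferase signal (Steady-Glo) measured after 5 h, cells having been seeded 24 h earlier at 5000 per well.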

The target in another experiment is T2, TLR8 (Homo sapiens, UniProt Q9NR97).
T2 construct: expressed in transfected cells; host or cells: HEK/293 reporter cells (NF-kB luciferase)
T2 sequence (Q9NR97 27-1041): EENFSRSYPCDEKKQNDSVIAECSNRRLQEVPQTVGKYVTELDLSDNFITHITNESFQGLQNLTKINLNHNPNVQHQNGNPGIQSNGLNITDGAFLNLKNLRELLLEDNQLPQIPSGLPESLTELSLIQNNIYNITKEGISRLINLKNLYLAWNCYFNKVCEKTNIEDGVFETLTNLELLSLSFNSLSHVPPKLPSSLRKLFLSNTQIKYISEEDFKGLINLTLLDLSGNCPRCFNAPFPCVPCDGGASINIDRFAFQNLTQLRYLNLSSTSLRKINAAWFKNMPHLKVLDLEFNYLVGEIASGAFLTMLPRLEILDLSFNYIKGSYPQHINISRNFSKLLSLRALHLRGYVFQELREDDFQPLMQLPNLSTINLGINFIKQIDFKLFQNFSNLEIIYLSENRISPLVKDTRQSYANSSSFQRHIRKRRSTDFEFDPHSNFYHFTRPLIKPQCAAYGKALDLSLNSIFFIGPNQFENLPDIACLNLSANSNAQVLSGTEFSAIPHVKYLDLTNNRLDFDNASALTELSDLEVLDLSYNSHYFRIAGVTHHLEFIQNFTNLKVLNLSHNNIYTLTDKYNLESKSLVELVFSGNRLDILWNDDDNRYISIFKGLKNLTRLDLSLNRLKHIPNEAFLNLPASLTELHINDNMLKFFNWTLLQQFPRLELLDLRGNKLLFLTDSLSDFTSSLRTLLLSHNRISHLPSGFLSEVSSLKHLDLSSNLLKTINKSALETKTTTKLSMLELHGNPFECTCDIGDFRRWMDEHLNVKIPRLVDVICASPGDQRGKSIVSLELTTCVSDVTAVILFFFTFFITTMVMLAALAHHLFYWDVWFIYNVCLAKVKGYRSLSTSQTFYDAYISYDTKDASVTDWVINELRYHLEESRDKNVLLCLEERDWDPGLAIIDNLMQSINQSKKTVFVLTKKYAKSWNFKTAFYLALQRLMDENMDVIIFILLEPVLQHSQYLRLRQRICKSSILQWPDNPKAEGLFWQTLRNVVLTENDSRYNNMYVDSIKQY
Description: HEK/293 TLR8 Cell Assay. The class given is cell-based. Conditions: HEK cells, R848 agonist 30 uM final concentration, Steady-Glo readout; read-out: TLR8 potency.

As for `C[C@@H]1CN(c2ccc(C#N)c3nccnc23)C[C@H](C(=O)NC[C@@H]2CN(C)CCO2)O1` (single isomer, unassigned) [Example 325], the IC50 on TLR7 and at TLR8 was below 75 nM throughout.

With `COC[C@H](O)CNC(=O)[C@H]1CN(c2ccc(C#N)c3nccnc23)C[C@@H](C)O1` (single isomer, unassigned) [Example 326], the IC50 on TLR7 is 75 to 150 nM; on TLR8, below 75 nM.

With `COC[C@@H](O)CNC(=O)[C@H]1CN(c2ccc(C#N)c3nccnc23)C[C@@H](C)O1` (single isomer, unassigned) [Example 327], the IC50 on TLR7 and on TLR8 was below 75 nM each time.

As to `C[C@@H]1CN(c2cnc(C#N)c3ncccc23)C[C@H](CNC(=O)[C@@]2(F)CCN(C)C2)O1` (single isomer, unassigned) [Example 334], the results for the IC50 on TLR7 and on TLR8 were above 150 nM and below 75 nM, respectively.

With `C[C@@H]1CN(c2cnc(C#N)c3ncccc23)C[C@H](CNC(=O)[C@]2(F)CCN(C)C2)O1` (single isomer, unassigned) [Example 335], the IC50 at TLR7 is 75 to 150 nM; on TLR8 it was below 75 nM.

Take `C[C@@H]1CN(c2cnc(C#N)c3ncccc23)C[C@H](CNC(=O)[C@@]2(F)CCNC2)O1` (single isomer, unassigned) [Example 336]: the IC50 on TLR7 and on TLR8 was below 75 nM each time.

In the case of `C[C@@H]1CN(c2cnc(C#N)c3ncccc23)C[C@H](CNC(=O)[C@]2(F)CCNC2)O1` (single isomer, unassigned) [Example 337], the IC50 at TLR7 and at TLR8 was below 75 nM throughout.

As for `C[C@@H]1CN(c2cnc(C#N)c3ncccc23)C[C@H](CNC(=O)[C@@]2(F)CCCNC2)O1` (single isomer, unassigned) [Example 338], the IC50 on TLR7 and at TLR8 was below 75 nM throughout.

For the compound `C[C@@H]1CN(c2cnc(C#N)c3ncccc23)C[C@H](CNC(=O)[C@]2(F)CCCNC2)O1` (single isomer, unassigned) [Example 339], the results for the IC50 on TLR7 and on TLR8 were above 150 nM and below 75 nM, respectively.

For `C[C@@H]1CN(c2ccc(C#N)c3nccnc23)C[C@H](CNC(=O)[C@@H](C)O)O1` (single isomer, unassigned) [Example 340], the IC50 at TLR7 is above 150 nM; on TLR8, below 75 nM.

`C[C@@H]1CN(c2ccc(C#N)c3nccnc23)C[C@H](CNC(=O)[C@H](C)O)O1` (single isomer, unassigned) [Example 341]: the IC50 was above 150 nM at TLR7 and below 75 nM on TLR8.

Consider `C[C@@H]1CN(c2ccc(C#N)c3ncncc23)C[C@H](CNC(=O)[C@@]2(F)CCNC2)O1` (single isomer, unassigned) [Example 344], for which the IC50 on TLR7 and at TLR8 was below 75 nM in each case.

Consider `C[C@@H]1CN(c2ccc(C#N)c3ncncc23)C[C@H](CNC(=O)[C@]2(F)CCNC2)O1` (single isomer, unassigned) [Example 345], for which the IC50 on TLR7 and on TLR8 was below 75 nM in each case.

For `CN1CC[C@@](F)(CNC(=O)[C@@H]2CN(c3cnc(C#N)c4ncccc34)C[C@H](C(F)(F)F)O2)C1` (single isomer, unassigned) [Example 349], the IC50 at TLR7 and on TLR8 was 75 to 150 nM in each case.

Take `CN1CC[C@@](F)(CNC(=O)[C@H]2CN(c3cnc(C#N)c4ncccc34)C[C@@H](C(F)(F)F)O2)C1` (single isomer, unassigned) [Example 350]: the IC50 on TLR7 and at TLR8 was above 150 nM in each case.

On to `CN1CCC(F)(CNC(=O)[C@@H]2CN(c3cnc(C#N)c4ncccc34)C[C@H](C(F)(F)F)O2)CC1` (single isomer, unassigned) [Example 351], for which the IC50 at TLR7 and on TLR8 was below 75 nM in each case.

On to `CN1CCC(F)(CNC(=O)[C@H]2CN(c3ccc(C#N)c4ncccc34)C[C@@H](C(F)(F)F)O2)CC1` (single isomer, unassigned) [Example 353], for which the IC50 at TLR7 and on TLR8 was below 75 nM throughout.

For `CN1CCC(F)(CNC(=O)[C@@H]2CN(c3ccc(C#N)c4ncccc34)C[C@H](C(F)(F)F)O2)CC1` (single isomer, unassigned) [Example 354], the IC50 was 75 to 150 nM at TLR7 and above 150 nM at TLR8.

Regarding `CN1CC[C@@](F)(CNC(=O)[C@H]2CN(c3ccc(C#N)c4nccnc34)C[C@@H](C(F)(F)F)O2)C1` (single isomer, unassigned) [Example 355], the IC50 at TLR7 and at TLR8 was below 75 nM in each case.

In the case of `CN1CC[C@@](F)(CNC(=O)[C@@H]2CN(c3ccc(C#N)c4nccnc34)C[C@H](C(F)(F)F)O2)C1` (single isomer, unassigned) [Example 356], the IC50 at TLR7 and on TLR8 was below 75 nM throughout.

Regarding `CN1CC[C@](F)(CNC(=O)[C@H]2CN(c3ccc(C#N)c4nccnc34)C[C@@H](C(F)(F)F)O2)C1` (single isomer, unassigned) [Example 357], the IC50 at TLR7 and on TLR8 was below 75 nM in each case.

With `CN1CC[C@](F)(CNC(=O)[C@@H]2CN(c3ccc(C#N)c4nccnc34)C[C@H](C(F)(F)F)O2)C1` (single isomer, unassigned) [Example 358], the IC50 at TLR7 and on TLR8 was below 75 nM each time.

On to `CN1CCC(F)(CNC(=O)[C@H]2CN(c3ccc(C#N)c4nccnc34)C[C@@H](C(F)(F)F)O2)CC1` (single isomer, unassigned) [Example 359], for which the IC50 on TLR7 and on TLR8 was below 75 nM each time.

In the case of `CN1CCC(F)(CNC(=O)[C@@H]2CN(c3ccc(C#N)c4nccnc34)C[C@H](C(F)(F)F)O2)CC1` (single isomer, unassigned) [Example 360], the IC50 on TLR7 and on TLR8 was below 75 nM each time.

As to `N#Cc1ccc(N2C[C@H](CN3CC(O)C3)O[C@H](C(F)(F)F)C2)c2nccnc12` (single isomer, unassigned) [Example 361], the values for the IC50 on TLR7 and on TLR8 were below 75 nM and 75 to 150 nM, respectively.

In the case of `N#Cc1ccc(N2C[C@@H](CN3CC(O)C3)O[C@@H](C(F)(F)F)C2)c2nccnc12` (single isomer, unassigned) [Example 362], the IC50 on TLR7 was below 75 nM; at TLR8, above 150 nM.

For the compound `N#Cc1ccc(N2C[C@H](CN3CCC4(CC3)CC(=O)N4)O[C@H](C(F)(F)F)C2)c2nccnc12` (single isomer, unassigned) [Example 363], the IC50 on TLR7 was below 75 nM; on TLR8, above 150 nM.

With `N#Cc1ccc(N2C[C@@H](CN3CCC4(CC3)CC(=O)N4)O[C@@H](C(F)(F)F)C2)c2nccnc12` (single isomer, unassigned) [Example 364], the IC50 on TLR7 was below 75 nM; on TLR8 it was above 150 nM.
